Data published in publication PMC12586182 (Frontiers in Oncology, 2025).

How the values were obtained:
Assay in all cases: Kinase panel profiling at 1 µmol/L (mobility shift assay, Carna)
Format in all cases: biochemical
Settings in all cases: 1 µmol/L of BTK inhibitor
JAK1 = target: T1, JAK1 (Homo sapiens, UniProt P23458)
T1 construct: purchased Carna Biosciences

EPHB4 = target: T2, EPHB4 (Homo sapiens, UniProt P54760)
T2 construct: purchased Carna Biosciences
T2 sequence (P54760 16-987): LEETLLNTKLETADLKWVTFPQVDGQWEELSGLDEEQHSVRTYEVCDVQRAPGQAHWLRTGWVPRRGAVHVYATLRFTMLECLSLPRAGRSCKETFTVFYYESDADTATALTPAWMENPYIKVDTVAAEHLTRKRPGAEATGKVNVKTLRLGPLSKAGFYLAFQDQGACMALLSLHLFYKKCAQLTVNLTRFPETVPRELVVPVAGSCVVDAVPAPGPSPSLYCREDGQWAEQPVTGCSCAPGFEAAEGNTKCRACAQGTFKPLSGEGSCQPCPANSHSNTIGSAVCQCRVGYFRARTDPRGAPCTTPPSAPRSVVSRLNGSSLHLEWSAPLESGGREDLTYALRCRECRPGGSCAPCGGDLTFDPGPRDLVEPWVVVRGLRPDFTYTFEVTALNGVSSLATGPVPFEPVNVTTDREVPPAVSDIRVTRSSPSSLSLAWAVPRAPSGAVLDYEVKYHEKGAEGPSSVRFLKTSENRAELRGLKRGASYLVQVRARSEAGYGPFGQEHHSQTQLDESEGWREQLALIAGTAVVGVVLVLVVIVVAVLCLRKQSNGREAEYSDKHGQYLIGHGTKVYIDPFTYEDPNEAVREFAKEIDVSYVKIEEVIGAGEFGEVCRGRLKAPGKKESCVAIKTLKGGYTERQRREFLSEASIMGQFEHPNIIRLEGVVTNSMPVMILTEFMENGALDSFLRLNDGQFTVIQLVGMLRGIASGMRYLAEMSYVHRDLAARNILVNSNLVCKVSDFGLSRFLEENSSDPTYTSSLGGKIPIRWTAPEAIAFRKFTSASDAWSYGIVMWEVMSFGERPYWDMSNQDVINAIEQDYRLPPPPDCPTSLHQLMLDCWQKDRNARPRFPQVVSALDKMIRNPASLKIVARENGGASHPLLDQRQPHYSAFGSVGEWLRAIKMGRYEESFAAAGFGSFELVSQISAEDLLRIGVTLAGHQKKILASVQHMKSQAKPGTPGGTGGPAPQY

LTK = target: T3, LTK (Homo sapiens, UniProt P29376)
T3 construct: purchased Carna Biosciences

RET = target: T4, RET (Homo sapiens, UniProt P07949)
T4 construct: purchased Carna Biosciences

EPHB3 = target: T5, EPHB3 (Homo sapiens, UniProt P54753)
T5 construct: purchased Carna Biosciences
T5 sequence (P54753 34-998): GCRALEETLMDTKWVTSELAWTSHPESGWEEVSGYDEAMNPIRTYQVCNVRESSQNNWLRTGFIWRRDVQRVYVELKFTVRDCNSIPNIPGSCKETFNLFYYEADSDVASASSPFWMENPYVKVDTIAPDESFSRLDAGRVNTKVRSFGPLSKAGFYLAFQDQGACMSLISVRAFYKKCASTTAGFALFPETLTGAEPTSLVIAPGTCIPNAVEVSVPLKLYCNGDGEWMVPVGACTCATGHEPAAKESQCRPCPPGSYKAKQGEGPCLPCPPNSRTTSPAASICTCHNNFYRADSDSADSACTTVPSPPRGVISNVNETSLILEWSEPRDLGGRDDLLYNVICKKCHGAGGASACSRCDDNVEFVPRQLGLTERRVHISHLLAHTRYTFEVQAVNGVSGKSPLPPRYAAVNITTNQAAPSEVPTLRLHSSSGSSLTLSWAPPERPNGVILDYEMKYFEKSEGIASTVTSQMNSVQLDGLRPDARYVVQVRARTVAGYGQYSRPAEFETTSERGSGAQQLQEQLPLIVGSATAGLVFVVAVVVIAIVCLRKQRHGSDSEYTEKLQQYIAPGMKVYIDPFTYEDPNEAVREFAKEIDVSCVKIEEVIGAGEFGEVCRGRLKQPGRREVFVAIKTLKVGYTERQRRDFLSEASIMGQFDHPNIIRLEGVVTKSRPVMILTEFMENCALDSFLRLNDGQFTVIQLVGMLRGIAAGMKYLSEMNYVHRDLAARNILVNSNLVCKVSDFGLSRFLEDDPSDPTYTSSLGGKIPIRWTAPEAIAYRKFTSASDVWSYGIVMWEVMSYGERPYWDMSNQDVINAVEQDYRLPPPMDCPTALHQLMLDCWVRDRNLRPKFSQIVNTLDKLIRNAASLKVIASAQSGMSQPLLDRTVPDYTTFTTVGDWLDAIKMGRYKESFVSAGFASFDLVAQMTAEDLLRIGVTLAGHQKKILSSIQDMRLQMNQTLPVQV

SIK = target: T6, SIK (Homo sapiens, UniProt P57059)
T6 construct: purchased Carna Biosciences

RSK2 = target: T7, RSK2 (Homo sapiens, UniProt P51812)
T7 construct: purchased Carna Biosciences

MARK3 = target: T8, MARK3 (Homo sapiens, UniProt P27448)
T8 construct: purchased Carna Biosciences

MARK2 = target: T9, MARK2 (Homo sapiens, UniProt Q7KZI7)
T9 construct: purchased Carna Biosciences

HCK = target: T10, HCK (Homo sapiens, UniProt P08631)
T10 construct: purchased Carna Biosciences
T10 sequence (P08631 whole entry): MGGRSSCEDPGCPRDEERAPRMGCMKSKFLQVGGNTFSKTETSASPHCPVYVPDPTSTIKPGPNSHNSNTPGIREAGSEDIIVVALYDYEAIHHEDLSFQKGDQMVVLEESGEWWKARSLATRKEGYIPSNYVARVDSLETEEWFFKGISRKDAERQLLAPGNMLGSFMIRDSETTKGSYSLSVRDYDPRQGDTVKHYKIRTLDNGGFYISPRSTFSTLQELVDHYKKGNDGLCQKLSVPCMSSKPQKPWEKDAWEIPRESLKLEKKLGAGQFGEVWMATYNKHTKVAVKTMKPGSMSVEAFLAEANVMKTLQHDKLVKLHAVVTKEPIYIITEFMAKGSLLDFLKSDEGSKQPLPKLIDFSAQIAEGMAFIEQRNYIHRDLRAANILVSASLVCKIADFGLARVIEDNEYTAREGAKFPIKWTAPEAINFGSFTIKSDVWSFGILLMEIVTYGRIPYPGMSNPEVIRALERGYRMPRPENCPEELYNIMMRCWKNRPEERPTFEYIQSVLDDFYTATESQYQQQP

T4 sequence (P07949 29-1114): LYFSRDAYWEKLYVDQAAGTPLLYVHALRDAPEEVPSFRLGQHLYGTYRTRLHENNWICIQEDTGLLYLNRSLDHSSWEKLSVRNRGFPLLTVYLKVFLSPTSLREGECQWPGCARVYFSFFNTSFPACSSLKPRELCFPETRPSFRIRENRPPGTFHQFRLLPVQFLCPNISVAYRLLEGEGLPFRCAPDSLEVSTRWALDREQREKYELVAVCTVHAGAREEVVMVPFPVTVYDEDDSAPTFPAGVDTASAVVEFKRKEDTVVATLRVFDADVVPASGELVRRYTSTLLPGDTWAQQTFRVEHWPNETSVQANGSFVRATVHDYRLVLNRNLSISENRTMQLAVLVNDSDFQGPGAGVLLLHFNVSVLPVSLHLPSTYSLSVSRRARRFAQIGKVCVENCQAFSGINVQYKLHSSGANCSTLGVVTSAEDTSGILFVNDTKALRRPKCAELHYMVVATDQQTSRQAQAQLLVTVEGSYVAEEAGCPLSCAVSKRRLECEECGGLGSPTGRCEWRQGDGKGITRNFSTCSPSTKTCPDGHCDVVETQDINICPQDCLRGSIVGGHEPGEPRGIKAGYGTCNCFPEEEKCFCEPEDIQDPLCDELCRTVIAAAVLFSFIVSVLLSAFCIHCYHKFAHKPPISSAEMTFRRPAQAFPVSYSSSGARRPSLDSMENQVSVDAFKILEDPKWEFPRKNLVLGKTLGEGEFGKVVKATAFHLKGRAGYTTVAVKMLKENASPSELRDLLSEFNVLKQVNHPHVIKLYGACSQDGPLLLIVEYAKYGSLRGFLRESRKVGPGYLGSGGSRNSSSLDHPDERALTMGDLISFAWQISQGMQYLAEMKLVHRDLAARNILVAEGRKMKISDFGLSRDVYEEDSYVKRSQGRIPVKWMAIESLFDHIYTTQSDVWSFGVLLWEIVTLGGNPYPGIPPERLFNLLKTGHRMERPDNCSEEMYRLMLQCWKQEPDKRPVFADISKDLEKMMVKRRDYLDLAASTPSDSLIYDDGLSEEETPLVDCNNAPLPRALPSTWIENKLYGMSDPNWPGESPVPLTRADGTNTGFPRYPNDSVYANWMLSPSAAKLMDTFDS
T7 sequence (P51812 whole entry): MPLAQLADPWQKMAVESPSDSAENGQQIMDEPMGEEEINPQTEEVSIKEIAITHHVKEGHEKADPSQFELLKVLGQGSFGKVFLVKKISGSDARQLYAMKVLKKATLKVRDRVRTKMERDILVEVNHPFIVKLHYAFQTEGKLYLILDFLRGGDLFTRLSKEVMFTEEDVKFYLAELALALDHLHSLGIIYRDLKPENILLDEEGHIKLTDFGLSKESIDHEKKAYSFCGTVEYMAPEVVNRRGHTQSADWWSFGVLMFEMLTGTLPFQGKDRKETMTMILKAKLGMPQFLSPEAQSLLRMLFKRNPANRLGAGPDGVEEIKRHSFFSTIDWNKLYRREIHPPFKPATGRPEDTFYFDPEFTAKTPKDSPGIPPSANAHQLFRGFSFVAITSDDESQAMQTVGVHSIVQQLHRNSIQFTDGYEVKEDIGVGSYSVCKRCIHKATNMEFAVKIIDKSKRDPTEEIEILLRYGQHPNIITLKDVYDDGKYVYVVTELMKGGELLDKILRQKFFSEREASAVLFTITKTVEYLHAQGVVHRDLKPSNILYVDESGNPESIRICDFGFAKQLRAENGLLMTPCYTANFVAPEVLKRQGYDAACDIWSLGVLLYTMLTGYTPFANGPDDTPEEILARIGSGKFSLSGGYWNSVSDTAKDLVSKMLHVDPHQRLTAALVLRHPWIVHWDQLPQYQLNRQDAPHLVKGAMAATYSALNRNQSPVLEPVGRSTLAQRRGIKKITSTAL
T3 sequence (P29376 17-864): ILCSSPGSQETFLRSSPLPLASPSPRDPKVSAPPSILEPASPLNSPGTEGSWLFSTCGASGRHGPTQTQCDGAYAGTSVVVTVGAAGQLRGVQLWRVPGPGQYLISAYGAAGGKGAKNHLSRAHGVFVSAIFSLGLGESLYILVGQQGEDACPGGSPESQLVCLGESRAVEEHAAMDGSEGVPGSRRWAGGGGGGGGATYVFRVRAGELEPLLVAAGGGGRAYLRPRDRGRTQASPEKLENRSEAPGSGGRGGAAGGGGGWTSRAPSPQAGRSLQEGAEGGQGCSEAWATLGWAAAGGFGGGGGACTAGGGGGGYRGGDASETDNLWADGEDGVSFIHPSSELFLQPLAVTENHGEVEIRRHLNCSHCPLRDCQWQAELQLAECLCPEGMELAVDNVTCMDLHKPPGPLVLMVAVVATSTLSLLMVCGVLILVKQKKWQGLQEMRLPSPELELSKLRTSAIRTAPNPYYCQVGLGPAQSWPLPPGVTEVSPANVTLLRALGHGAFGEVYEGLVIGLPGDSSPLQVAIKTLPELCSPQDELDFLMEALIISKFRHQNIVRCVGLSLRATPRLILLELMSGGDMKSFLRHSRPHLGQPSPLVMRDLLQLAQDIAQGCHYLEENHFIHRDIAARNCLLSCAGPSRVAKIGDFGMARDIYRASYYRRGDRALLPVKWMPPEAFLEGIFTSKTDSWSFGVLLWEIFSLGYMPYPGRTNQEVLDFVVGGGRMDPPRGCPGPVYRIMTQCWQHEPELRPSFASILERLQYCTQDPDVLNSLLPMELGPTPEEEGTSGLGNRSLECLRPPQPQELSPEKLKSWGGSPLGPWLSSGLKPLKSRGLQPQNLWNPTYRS
T8 sequence (P27448 whole entry): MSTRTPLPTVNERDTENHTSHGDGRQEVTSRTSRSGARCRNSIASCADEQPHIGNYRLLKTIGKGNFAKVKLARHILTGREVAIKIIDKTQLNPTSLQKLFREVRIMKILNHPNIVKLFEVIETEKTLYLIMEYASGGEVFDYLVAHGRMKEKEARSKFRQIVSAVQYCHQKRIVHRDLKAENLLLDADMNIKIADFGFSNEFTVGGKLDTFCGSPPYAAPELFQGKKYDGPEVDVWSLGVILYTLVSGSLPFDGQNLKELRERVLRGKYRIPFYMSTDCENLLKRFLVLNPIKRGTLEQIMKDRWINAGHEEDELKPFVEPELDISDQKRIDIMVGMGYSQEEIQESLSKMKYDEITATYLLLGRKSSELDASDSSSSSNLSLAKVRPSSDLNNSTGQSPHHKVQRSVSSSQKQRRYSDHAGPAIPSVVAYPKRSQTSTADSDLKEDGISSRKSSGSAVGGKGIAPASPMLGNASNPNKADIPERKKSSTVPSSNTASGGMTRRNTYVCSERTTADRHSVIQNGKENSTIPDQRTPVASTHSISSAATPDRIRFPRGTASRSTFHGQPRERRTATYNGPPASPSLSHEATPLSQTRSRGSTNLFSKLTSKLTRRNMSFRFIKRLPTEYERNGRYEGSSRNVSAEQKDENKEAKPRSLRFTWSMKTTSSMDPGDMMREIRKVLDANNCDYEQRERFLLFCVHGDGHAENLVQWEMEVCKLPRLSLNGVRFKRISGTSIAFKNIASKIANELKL
T9 sequence (Q7KZI7 whole entry): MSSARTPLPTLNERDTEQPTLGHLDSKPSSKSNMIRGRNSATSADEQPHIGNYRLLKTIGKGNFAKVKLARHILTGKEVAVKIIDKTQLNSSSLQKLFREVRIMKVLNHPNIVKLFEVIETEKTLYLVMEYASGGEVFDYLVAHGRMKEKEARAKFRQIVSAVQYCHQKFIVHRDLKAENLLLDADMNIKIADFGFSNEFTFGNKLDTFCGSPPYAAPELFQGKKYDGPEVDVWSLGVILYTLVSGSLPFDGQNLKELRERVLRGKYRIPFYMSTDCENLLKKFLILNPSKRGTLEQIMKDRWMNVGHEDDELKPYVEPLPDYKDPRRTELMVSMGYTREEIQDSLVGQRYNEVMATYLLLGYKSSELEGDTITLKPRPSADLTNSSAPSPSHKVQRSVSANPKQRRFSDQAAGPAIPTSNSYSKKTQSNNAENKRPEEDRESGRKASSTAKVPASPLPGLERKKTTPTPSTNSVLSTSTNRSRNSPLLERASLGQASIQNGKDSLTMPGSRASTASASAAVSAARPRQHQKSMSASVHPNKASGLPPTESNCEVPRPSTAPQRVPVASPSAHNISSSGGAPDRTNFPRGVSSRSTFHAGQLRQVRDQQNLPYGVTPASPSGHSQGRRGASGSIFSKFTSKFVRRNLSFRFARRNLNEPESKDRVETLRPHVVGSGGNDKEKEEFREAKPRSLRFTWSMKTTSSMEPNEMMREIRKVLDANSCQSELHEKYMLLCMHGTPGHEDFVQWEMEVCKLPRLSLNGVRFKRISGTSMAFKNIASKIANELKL

SMILES	Percentage inhibition of kinase enzyme activity (JAK1) [%]	Percentage inhibition of kinase enzyme activity (EPHB4) [%]	Percentage inhibition of kinase enzyme activity (LTK) [%]	Percentage inhibition of kinase enzyme activity (RET) [%]	Percentage inhibition of kinase enzyme activity (EPHB3) [%]	Percentage inhibition of kinase enzyme activity (SIK) [%]	Percentage inhibition of kinase enzyme activity (RSK2) [%]	Percentage inhibition of kinase enzyme activity (MARK3) [%]	Percentage inhibition of kinase enzyme activity (MARK2) [%]	Percentage inhibition of kinase enzyme activity (HCK) [%]
C=CC(=O)N1CCC([C@@H]2CCNc3c(C(N)=O)c(-c4ccc(Oc5ccccc5)cc4)nn32)CC1 [zanubrutinib]	-0.37	12.92	55.84	18.89	-2.82	–	–	–	–	–
CC#CC(=O)N1CCC[C@H]1c1nc(-c2ccc(C(=O)Nc3ccccn3)cc2)c2c(N)nccn12 [acalabrutinib]	-12.91	-1.45	10.06	13.72	1.64	0.26	0.054	-2.57	-9.24	0.45
COc1ccc(F)cc1C(=O)NCc1ccc(-c2nn([C@@H](C)C(F)(F)F)c(N)c2C(N)=O)cc1 [pirtobrutinib]	-2.12	4.51	-0.40	51.77	34.88	-2.28	2.95	5.64	2.21	24.69
O=C(c1ccc(Oc2ccccc2)cc1Cl)c1c[nH]c2ncnc(N[C@@H]3CC[C@@H](CO)OC3)c12 [nemtabrutinib]	32.55	37.75	–	98.99	73.92	96.56	7.48	10.97	-4.16	96.80
C=CC(=O)N1CCC[C@@H](n2nc(-c3ccc(Oc4ccccc4)cc3)c3c(N)ncnc32)C1 [ibrutinib]	-9.54	26.52	2.76	87.66	2.93	8.13	7.41	-5.88	2.67	99.66
